Assay results taken from patent US10363257B2 (ZENITH EPIGENETICS LTD., priority 2013, dated 2019).

Legend:
hIL-6 mRNA = experiment: Inhibition of hIL-6 mRNA transcription in LPS-stimulated U937 cells; assay type: cell-based; conditions: Homo sapiens, U-937; PMA-differentiated U937 cells, 1 h pretreatment, 1 ug/mL LPS stimulation, 3 h; read-out: IL-6 activity (Inhibition of hIL-6 mRNA Transcription)
Procedure, shortened: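 U937 cells differentiated 3 days with 60 ng/mL PMA, pretreated 1 h with compound (0.1% DMSO), then stimulated with 1 ug/mL E. coli LPS for 3 h at 37 °C. hIL-6 mRNA measured by one-step TaqMan RT-qPCR, normalized to cyclophilin. Fold expression relative to control; triplicate wells.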

c-myc = experiment: Inhibition of c-myc expression (mRNA, real-time PCR) in MV4-11 cells; assay type: cell-based; conditions: Human AML MV4-11 cells, 3 h, cMYC mRNA
Procedure, shortened: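 One-step TaqMan qPCR of cMYC, normalized to an internal control with Cyclophilin probes run, gave fold expression versus DMSO (0.1%) control. Samples: triplicate MV4-11 wells exposed 3 h at 37° C to rising compound concentrations in IMDM with 10% FBS.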

[1] = target: T1, Brd4 bromodomain 1 (BRD4(1)) (Homo sapiens, UniProt O60885); experiment: Inhibition of tetra-acetylated histone H4 binding to Brd4 bromodomain 1 (TR-FRET); conditions: tetra-acetylated histone H4 peptide, first bromodomain of Brd4
T1 construct: made in house; host or cells: E. coli BL21(DE3)
Procedure, shortened: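 Serially diluted compound (0.2% DMSO) incubated 2 h at room temperature with 200 nM N-His BRD4 bromodomain 1 and 25-50 nM biotinylated tetra-acetyl H4 peptide, detected via Eu-streptavidin/XL665 anti-His. Loss of 665 nm relative to 620 nm signal gave IC50 from dose-response.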

human AML MV-4-11 cells = experiment: Inhibition of cell proliferation in MV4-11 cells (CellTiter Aqueous One); assay type: cell-based; conditions: MV4-11, 72 h
Procedure, shortened: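 IC50 values come from blank-corrected proliferation relative to DMSO controls, read as 490 nm absorbance 3–4 h after CellTiter Aqueous One addition. Before that, cells seeded at 5×10^4/well were exposed for 72 h (37° C, 5% CO2) to triplicate two-fold compound dilutions spanning 30–0.2 μM.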

SMILES | IC50 (hIL-6 mRNA) | IC50 (c-myc) | IC50 [1] | IC50 (human AML MV-4-11 cells)
Cc1noc(C)c1-c1cc(N)c2ccn(Cc3ccccc3)c2n1 [compound 73, 1-benzyl-6-(3,5-dimethylisoxazol-4-yl)-1H-pyrrolo[2,3-b]pyridin-4-amine] | 300 to 3000 nM | 3000 to 30000 nM | 300 to 3000 nM | 3000 to 30000 nM
Cc1noc(C)c1-c1cnc2nc(NC3CCOCC3)n(CC3CCC3)c2c1 [compound 223, 1-(cyclobutylmethyl)-6-(3,5-dimethylisoxazol-4-yl)-N-(tetrahydro-2H-pyran-4-yl)-1H-imidazo[4,5-b]pyridin-2-amine] | 300 to 3000 nM | ≤ 300 nM | ≤ 300 nM | 300 to 3000 nM
CCOc1nc2c(N)cc(-c3c(C)noc3C)cc2n1Cc1ccccc1 [Example Compound 17, 1-benzyl-6-(3,5-dimethylisoxazol-4-yl)-2-ethoxy-1H-benzo[d]imidazol-4-amine] | 300 to 3000 nM | ≤ 300 nM | ≤ 300 nM | 300 to 3000 nM
Cc1noc(C)c1-c1cnc2nc(NCCN3CCOCC3)n(Cc3ccccc3)c2c1 [compound 215, 1-benzyl-6-(3,5-dimethylisoxazol-4-yl)-N-(2-morpholinoethyl)-1H-imidazo[4,5-b]pyridin-2-amine] | ≤ 300 nM | ≤ 300 nM | ≤ 300 nM | 300 to 3000 nM
Cc1noc(C)c1-c1cc([N+](=O)[O-])c2[nH]c(=O)n(Cc3ccc(Cl)cc3)c2c1 [compound 91, 1-(4-chlorobenzyl)-6-(3,5-dimethylisoxazol-4-yl)-4-nitro-1H-benzo[d]imidazol-2(3H)-one] | 300 to 3000 nM | 300 to 3000 nM | ≤ 300 nM | 3000 to 30000 nM
Cc1noc(C)c1-c1cc(N)c2cnn(Cc3ccccc3)c2c1 [Example Compound 54, 1-benzyl-6-(3,5-dimethylisoxazol-4-yl)-1H-indazol-4-amine] | 300 to 3000 nM | 300 to 3000 nM | ≤ 300 nM | 300 to 3000 nM
Cc1noc(C)c1-c1cc(C#N)c2[nH]c(=O)n(Cc3ccccc3)c2c1 [compound 86, 1-benzyl-6-(3,5-dimethylisoxazol-4-yl)-2-oxo-2,3-dihydro-1H-benzo[d]imidazole-4-carbonitrile] | 300 to 3000 nM | 300 to 3000 nM | ≤ 300 nM | 3000 to 30000 nM
Cc1noc(C)c1-c1cnc2nc(NCc3cccc(C#N)c3)n(Cc3ccccc3)c2c1 [compound 217, 3-(((1-benzyl-6-(3,5-dimethylisoxazol-4-yl)-1H-imidazo[4,5-b]pyridin-2-yl)amino)methyl)benzonitrile] | ≤ 300 nM | ≤ 300 nM | ≤ 300 nM | 300 to 3000 nM
Cc1noc(C)c1-c1cc(F)c2nc(C)n(Cc3ccccc3)c2c1 [compound 158, 4-(1-benzyl-4-fluoro-2-methyl-1H-benzo[d]imidazol-6-yl)-3,5-dimethylisoxazole] | 300 to 3000 nM | 300 to 3000 nM | ≤ 300 nM | 300 to 3000 nM
CC(=O)Nc1cc(-c2c(C)noc2C)cc2c1[nH]c(=O)n2Cc1ccccc1 [compound 111, N-(1-benzyl-6-(3,5-dimethylisoxazol-4-yl)-2-oxo-2,3-dihydro-1H-benzo[d]imidazol-4-yl)acetamide] | ≤ 300 nM | ≤ 300 nM | ≤ 300 nM | ≤ 300 nM
Cc1noc(C)c1-c1cnc2nc(N3CCC3)n(CC3CCC3)c2c1 [compound 211, 4-(2-(azetidin-1-yl)-1-(cyclobutylmethyl)-1H-imidazo[4,5-b]pyridin-6-yl)-3,5-dimethylisoxazole] | ≤ 300 nM | 300 to 3000 nM | ≤ 300 nM | ≤ 300 nM
Cc1noc(C)c1-c1cnc2c(c1)ncn2Cc1ccccc1 [Example Compound 4, 4-(3-Benzyl-3H-imidazo[4,5-b]pyridin-6-yl)-3,5-dimethylisoxazole] | 300 to 3000 nM | 300 to 3000 nM | 300 to 3000 nM | 3000 to 30000 nM
Cc1noc(C)c1-c1cnc2nc(N3CCOCC3)n(CC3CCCC3)c2c1 [compound 208, 4-(1-(cyclopentylmethyl)-6-(3,5-dimethylisoxazol-4-yl)-1H-imidazo[4,5-b]pyridin-2-yl)morpholine] | ≤ 300 nM | ≤ 300 nM | ≤ 300 nM | 300 to 3000 nM
Cc1noc(C)c1-c1cnc2c(c1)ncn2Cc1ccccn1 [Example Compound 46, 3,5-dimethyl-4-(3-(pyridin-2-ylmethyl)-3H-imidazo[4,5-b]pyridin-6-yl)isoxazole] | 3000 to 30000 nM | 3000 to 30000 nM | 300 to 3000 nM | 3000 to 30000 nM
Cc1noc(C)c1-c1cc(N)c2nc(N3CCC3)n(Cc3ccccc3)c2c1 [compound 97, 2-(azetidin-1-yl)-1-benzyl-6-(3,5-dimethylisoxazol-4-yl)-1H-benzo[d]imidazol-4-amine] | ≤ 300 nM | ≤ 300 nM | ≤ 300 nM | ≤ 300 nM
Cc1noc(C)c1-c1cc([N+](=O)[O-])c2[nH]c(=O)n(Cc3ccccc3)c2c1 [Example Compound 15, 1-benzyl-6-(3,5-dimethylisoxazol-4-yl)-4-nitro-1H-benzo[d]imidazol-2(3H)-one] | 300 to 3000 nM | 300 to 3000 nM | ≤ 300 nM | 300 to 3000 nM
Cc1cnn(C)c1-c1cc(N)c2nc(C)n(Cc3ccccc3)c2c1 [compound 82, 1-benzyl-6-(1,4-dimethyl-1H-pyrazol-5-yl)-2-methyl-1H-benzo[d]imidazol-4-amine] | 300 to 3000 nM | 300 to 3000 nM | 300 to 3000 nM | 3000 to 30000 nM
Cc1noc(C)c1-c1cc(N)c2nc(N3CCCC3)n(Cc3ccccc3)c2c1 [compound 140, 1-benzyl-6-(3,5-dimethylisoxazol-4-yl)-2-(pyrrolidin-1-yl)-1H-benzo[d]imidazol-4-amine] | ≤ 300 nM | ≤ 300 nM | ≤ 300 nM | ≤ 300 nM
Cc1noc(C)c1-c1cc(N)c2nc(C)n([C@@H](C)c3ccccc3)c2c1 [compound 143, (S)-6-(3,5-dimethylisoxazol-4-yl)-2-methyl-1-(1-phenylethyl)-1H-benzo[d]imidazol-4-amine] | ≤ 300 nM | ≤ 300 nM | ≤ 300 nM | ≤ 300 nM
Cc1noc(C)c1-c1cc([N+](=O)[O-])c2nc(NCc3cccnc3)n(Cc3ccccc3)c2c1 [compound 148, 1-benzyl-6-(3,5-dimethylisoxazol-4-yl)-4-nitro-N-(pyridin-3-ylmethyl)-1H-benzo[d]imidazol-2-amine] | ≤ 300 nM | 300 to 3000 nM | ≤ 300 nM | 300 to 3000 nM
Cc1noc(C)c1-c1cnc2c(c1)ncn2Cc1ccc(Cl)cc1 [Example Compound 42, 4-(3-(4-chlorobenzyl)-3H-imidazo[4,5-b]pyridin-6-yl)-3,5-dimethylisoxazole] | 3000 to 30000 nM | 3000 to 30000 nM | 300 to 3000 nM | 3000 to 30000 nM
Cc1noc(C)c1-c1cnc2c(N)cn(Cc3ccccc3)c2c1 [compound 100, 1-benzyl-6-(3,5-dimethylisoxazol-4-yl)-1H-pyrrolo[3,2-b]pyridin-3-amine] | 300 to 3000 nM | 300 to 3000 nM | ≤ 300 nM | 300 to 3000 nM
Cc1noc(C)c1-c1cnc2nc(N)n(Cc3ccccc3)c2c1 [compound 216, 1-benzyl-6-(3,5-dimethylisoxazol-4-yl)-1H-imidazo[4,5-b]pyridin-2-amine] | ≤ 300 nM | 300 to 3000 nM | ≤ 300 nM | ≤ 300 nM
CCS(=O)(=O)Nc1cc(-c2c(C)noc2C)cc2c1nc(C)n2Cc1ccccc1 [Example Compound 65, N-(1-benzyl-6-(3,5-dimethylisoxazol-4-yl)-2-methyl-1H-benzo[d]imidazol-4-yl)ethanesulfonamide] | 300 to 3000 nM | 300 to 3000 nM | ≤ 300 nM | 300 to 3000 nM
Cc1noc(C)c1-c1cc(N)c2cnn(Cc3ccc(Cl)cc3)c2c1 [compound 102, 1-(4-chlorobenzyl)-6-(3,5-dimethylisoxazol-4-yl)-1H-indazol-4-amine] | ≤ 300 nM | ≤ 300 nM | ≤ 300 nM | 300 to 3000 nM
Cc1noc(C)c1-c1cnc2nc(C)n(Cc3cccs3)c2c1 [compound 69, 3,5-dimethyl-4-(2-methyl-1-(thiophen-2-ylmethyl)-1H-imidazo[4,5-b]pyridin-6-yl)isoxazole] | 300 to 3000 nM | 300 to 3000 nM | ≤ 300 nM | 300 to 3000 nM
Cc1noc(C)c1-c1cnc2ccn(Cc3ccc(F)cc3)c2c1 [Example Compound 48, 4-(1-(4-fluorobenzyl)-1H-pyrrolo[3,2-b]pyridin-6-yl)-3,5-dimethylisoxazole] | 300 to 3000 nM | 300 to 3000 nM | ≤ 300 nM | 3000 to 30000 nM
Cc1nc2c(N)cc(-c3ccnn3C)cc2n1Cc1ccccc1 [compound 94, 1-benzyl-2-methyl-6-(1-methyl-1H-pyrazol-5-yl)-1H-benzo[d]imidazol-4-amine] | 300 to 3000 nM | 300 to 3000 nM | ≤ 300 nM | 300 to 3000 nM
